{"source": "ChEMBL document CHEMBL4359841", "about": "“Late-Stage Functionalization of Platensimycin Leading to Multiple Analogues with Improved Antibacterial Activity in Vitro and in Vivo” (2019)", "key": {"Staphylococcus aureus [1]": {"tested_on": "Staphylococcus aureus", "assay": "Inhibition of FabB/FabF in methicillin-resistant Staphylococcus aureus 3111 clinical isolate assessed as antibacterial activity after 16 hrs by agar dilution method"}, "Staphylococcus aureus [2]": {"tested_on": "Staphylococcus aureus", "assay": "Inhibition of FabB/FabF in methicillin-resistant Staphylococcus aureus 3095 clinical isolate assessed as antibacterial activity after 16 hrs by agar dilution method"}, "Staphylococcus aureus [3]": {"tested_on": "Staphylococcus aureus", "assay": "Inhibition of FabB/FabF in methicillin-resistant Staphylococcus aureus 2985 clinical isolate assessed as antibacterial activity after 16 hrs by agar dilution method"}, "Staphylococcus aureus [4]": {"tested_on": "Staphylococcus aureus", "assay": "Inhibition of FabB/FabF in methicillin-resistant Staphylococcus aureus 3112 clinical isolate assessed as antibacterial activity after 16 hrs by agar dilution method"}, "Staphylococcus aureus [5]": {"tested_on": "Staphylococcus aureus", "assay": "Inhibition of FabB/FabF in methicillin-resistant Staphylococcus aureus 3156 clinical isolate assessed as antibacterial activity after 16 hrs by agar dilution method"}, "Staphylococcus aureus [6]": {"tested_on": "Staphylococcus aureus", "assay": "Inhibition of FabB/FabF in methicillin-resistant Staphylococcus aureus 3163 clinical isolate assessed as antibacterial activity after 16 hrs by agar dilution method"}, "Staphylococcus aureus [7]": {"tested_on": "Staphylococcus aureus", "assay": "Inhibition of FabB/FabF in methicillin-resistant Staphylococcus aureus 3071 clinical isolate assessed as antibacterial activity after 16 hrs by agar dilution method"}, "Staphylococcus aureus [8]": {"tested_on": "Staphylococcus aureus", "assay": "Inhibition of FabB/FabF in methicillin-resistant Staphylococcus aureus 3108 clinical isolate assessed as antibacterial activity after 16 hrs by agar dilution method"}, "Staphylococcus aureus [9]": {"tested_on": "Staphylococcus aureus", "assay": "Inhibition of FabB/FabF in methicillin-resistant Staphylococcus aureus 3093 clinical isolate assessed as antibacterial activity after 16 hrs by agar dilution method"}, "Staphylococcus aureus [10]": {"tested_on": "Staphylococcus aureus", "assay": "Inhibition of FabB/FabF in methicillin-resistant Staphylococcus aureus 3056 clinical isolate assessed as antibacterial activity after 16 hrs by agar dilution method"}, "Staphylococcus aureus [11]": {"tested_on": "Staphylococcus aureus", "assay": "Inhibition of FabB/FabF in methicillin-resistant Staphylococcus aureus 3100 clinical isolate assessed as antibacterial activity after 16 hrs by agar dilution method"}, "Staphylococcus aureus [12]": {"tested_on": "Staphylococcus aureus", "assay": "Inhibition of FabB/FabF in methicillin-resistant Staphylococcus aureus 3074 clinical isolate assessed as antibacterial activity after 16 hrs by agar dilution method"}, "Staphylococcus aureus [13]": {"tested_on": "Staphylococcus aureus", "assay": "Inhibition of FabB/FabF in methicillin-resistant Staphylococcus aureus 3094 clinical isolate assessed as antibacterial activity after 16 hrs by agar dilution method"}, "Staphylococcus aureus [14]": {"tested_on": "Staphylococcus aureus", "assay": "Antibacterial activity against methicillin-resistant Staphylococcus aureus infected in BALB/c mouse model of skin wound assessed as retainment of fat layers at 2 mg administered topically as ointment twice daily for 7 days and measured after 24 hrs by HE staining analysis", "assay_type": "functional, organism-based"}, "Staphylococcus aureus [15]": {"tested_on": "Staphylococcus aureus", "assay": "Antibacterial activity against methicillin-resistant Staphylococcus aureus infected in BALB/c mouse model of skin infection assessed as bacterial load in skin lesions at 2 mg administered topically as ointment twice daily for 7 days and measured at 24 hrs post last dose (7.9 +/- 0.9 x 10^8 CFU/g)", "assay_type": "functional"}, "Staphylococcus aureus [16]": {"tested_on": "Staphylococcus aureus", "assay": "Inhibition of FabB/FabF in methicillin-resistant Staphylococcus aureus assessed as antibacterial activity at 2 ug/disk after 18 hrs by agar disk diffusion method"}, "Staphylococcus aureus [17]": {"tested_on": "Staphylococcus aureus", "assay": "Antibacterial activity against methicillin-resistant Staphylococcus aureus infected in BALB/c mouse model of skin wound assessed as reduction in detachment of epidermis from dermis at 2 mg administered topically as ointment twice daily for 7 days and measured after 24 hrs by visual inspection method", "assay_type": "functional, organism-based"}, "Staphylococcus aureus [18]": {"tested_on": "Staphylococcus aureus", "assay": "Antibacterial activity against methicillin-resistant Staphylococcus aureus infected in C57BL/6J mouse model of peritonitis assessed as mouse survival at 30 to 50 mg/kg, po administered via gavage measured after 2 days", "assay_type": "functional, organism-based"}, "Staphylococcus aureus [19]": {"tested_on": "Staphylococcus aureus", "assay": "Antibacterial activity against methicillin-resistant Staphylococcus aureus infected in BALB/c mouse model of skin wound assessed as retainment of dermis layers at 2 mg administered topically as ointment twice daily for 7 days and measured and after 24 hrs by HE staining analysis", "assay_type": "functional, organism-based"}, "Staphylococcus aureus [20]": {"tested_on": "Staphylococcus aureus", "assay": "Antibacterial activity against methicillin-resistant Staphylococcus aureus infected in C57BL/6J mouse model of peritonitis assessed as mouse survival at 20 mg/kg, ip dosed at 1 hr and 5 hrs post infection and measured for 7 days relative to control", "assay_type": "functional"}, "Staphylococcus aureus [21]": {"tested_on": "Staphylococcus aureus", "assay": "Antibacterial activity against methicillin-resistant Staphylococcus aureus infected in BALB/c mouse model of skin wound assessed as reduction in appearance of secondary scald at 2 mg administered topically as ointment twice daily for 7 days and measured after 24 hrs by visual inspection method", "assay_type": "functional, organism-based"}, "Staphylococcus aureus [22]": {"tested_on": "Staphylococcus aureus", "assay": "Antibacterial activity against methicillin-resistant Staphylococcus aureus infected in C57BL/6J mouse model of peritonitis assessed as mouse survival at 30 mg/kg, ip dosed at 1 hr and 5 hrs post infection and measured for 7 days relative to control", "assay_type": "functional"}}, "note": "Calls of active or inactive are those of the source. No cut-off for these calls is given here.", "data": [{"compound": "C[C@]12C[C@@]34C=CC(=O)[C@@](C)(CCC(=O)Nc5c(O)ccc(C(=O)O)c5O)[C@@H]3[C@H](C[C@@H]1C4)O2", "values": [{"measurement": "MIC", "setting": "Staphylococcus aureus [1]", "value": 1, "unit": "µg/mL"}, {"measurement": "MIC", "setting": "Staphylococcus aureus [2]", "value": 1, "unit": "µg/mL"}, {"measurement": "MIC", "setting": "Staphylococcus aureus [3]", "value": 1, "unit": "µg/mL"}, {"measurement": "MIC", "setting": "Staphylococcus aureus [4]", "value": 1, "unit": "µg/mL"}, {"measurement": "MIC", "setting": "Staphylococcus aureus [5]", "value": 1, "unit": "µg/mL"}, {"measurement": "MIC", "setting": "Staphylococcus aureus [6]", "value": 1, "unit": "µg/mL"}, {"measurement": "MIC", "setting": "Staphylococcus aureus [7]", "value": 1, "unit": "µg/mL"}, {"measurement": "MIC", "setting": "Staphylococcus aureus [8]", "value": 1, "unit": "µg/mL"}, {"measurement": "MIC", "setting": "Staphylococcus aureus [9]", "value": 1, "unit": "µg/mL"}, {"measurement": "MIC", "setting": "Staphylococcus aureus [10]", "value": 1, "unit": "µg/mL"}, {"measurement": "MIC", "setting": "Staphylococcus aureus [11]", "value": 1, "unit": "µg/mL"}, {"measurement": "MIC", "setting": "Staphylococcus aureus [12]", "value": 1, "unit": "µg/mL"}, {"measurement": "MIC", "setting": "Staphylococcus aureus [13]", "value": 1, "unit": "µg/mL"}]}, {"compound": "C[C@]12C[C@@]34C=C(SC5CCCCC5)C(=O)[C@@](C)(CCC(=O)Nc5c(O)ccc(C(=O)O)c5O)[C@@H]3[C@H](C[C@@H]1C4)O2", "values": [{"measurement": "Activity", "setting": "Staphylococcus aureus [14]", "value": "Active"}, {"measurement": "Activity", "setting": "Staphylococcus aureus [15]", "value": 2.7, "unit": "×10⁶ CFU/g"}, {"measurement": "inhibition", "setting": "Staphylococcus aureus [1]", "value": "Active"}, {"measurement": "inhibition", "setting": "Staphylococcus aureus [2]", "value": "Active"}, {"measurement": "inhibition", "setting": "Staphylococcus aureus [16]", "value": "Active"}, {"measurement": "inhibition", "setting": "Staphylococcus aureus [3]", "value": "Active"}, {"measurement": "inhibition", "setting": "Staphylococcus aureus [4]", "value": "Active"}, {"measurement": "inhibition", "setting": "Staphylococcus aureus [5]", "value": "Active"}, {"measurement": "Activity", "setting": "Staphylococcus aureus [17]", "value": "Active"}, {"measurement": "inhibition", "setting": "Staphylococcus aureus [6]", "value": "Active"}, {"measurement": "Survival", "setting": "Staphylococcus aureus [18]", "value": "inactive"}, {"measurement": "inhibition", "setting": "Staphylococcus aureus [7]", "value": "Active"}, {"measurement": "Activity", "setting": "Staphylococcus aureus [19]", "value": "Active"}, {"measurement": "inhibition", "setting": "Staphylococcus aureus [8]", "value": "Active"}, {"measurement": "inhibition", "setting": "Staphylococcus aureus [9]", "value": "Active"}, {"measurement": "survival at 20 mg/kg", "setting": "Staphylococcus aureus [20]", "value": 100, "unit": "%"}, {"measurement": "inhibition", "setting": "Staphylococcus aureus [10]", "value": "Active"}, {"measurement": "Activity", "setting": "Staphylococcus aureus [21]", "value": "Active"}, {"measurement": "inhibition", "setting": "Staphylococcus aureus [11]", "value": "Active"}, {"measurement": "inhibition", "setting": "Staphylococcus aureus [12]", "value": "Active"}, {"measurement": "survival at 30 mg/kg", "setting": "Staphylococcus aureus [22]", "value": 80, "unit": "%"}, {"measurement": "inhibition", "setting": "Staphylococcus aureus [13]", "value": "Active"}]}]}
